Assays:
[1] = target: Carbonic anhydrase 7 (Homo sapiens) (UniProt P43166); test: Activation of human recombinant CA7 by CO2 hydrase assay
[2] = target: Carbonic anhydrase 14 (Homo sapiens) (UniProt Q9ULX7); test: Activation of human recombinant CA14 by CO2 hydrase assay
[3] = target: Carbonic anhydrase 1 (Homo sapiens) (UniProt P00915); test: Activation of human recombinant CA1 by CO2 hydrase assay
[4] = target: Carbonic anhydrase 2 (Homo sapiens) (UniProt P00918); test: Activation of human recombinant CA2 by CO2 hydrase assay

Carbonic anhydrase 14 (Homo sapiens), sequence (Q9ULX7 whole entry): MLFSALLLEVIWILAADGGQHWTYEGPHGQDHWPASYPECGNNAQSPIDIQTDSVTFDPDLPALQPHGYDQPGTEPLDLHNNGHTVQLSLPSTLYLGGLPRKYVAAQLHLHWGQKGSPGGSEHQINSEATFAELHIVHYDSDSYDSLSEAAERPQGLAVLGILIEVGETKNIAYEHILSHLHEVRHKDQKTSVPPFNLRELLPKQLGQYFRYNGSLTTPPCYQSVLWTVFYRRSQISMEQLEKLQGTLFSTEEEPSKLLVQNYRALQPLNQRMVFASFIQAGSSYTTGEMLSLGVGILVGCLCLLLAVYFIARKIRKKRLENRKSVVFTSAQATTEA
Carbonic anhydrase 7 (Homo sapiens), sequence (P43166 whole entry): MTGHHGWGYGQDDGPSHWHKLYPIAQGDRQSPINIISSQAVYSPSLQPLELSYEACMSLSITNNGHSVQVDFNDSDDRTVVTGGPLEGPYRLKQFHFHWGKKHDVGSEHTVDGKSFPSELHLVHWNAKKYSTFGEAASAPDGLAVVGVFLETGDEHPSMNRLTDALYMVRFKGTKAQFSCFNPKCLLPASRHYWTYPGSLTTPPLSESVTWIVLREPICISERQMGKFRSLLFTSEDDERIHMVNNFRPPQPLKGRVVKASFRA
Carbonic anhydrase 1 (Homo sapiens), sequence (P00915 2-261 limits assumed): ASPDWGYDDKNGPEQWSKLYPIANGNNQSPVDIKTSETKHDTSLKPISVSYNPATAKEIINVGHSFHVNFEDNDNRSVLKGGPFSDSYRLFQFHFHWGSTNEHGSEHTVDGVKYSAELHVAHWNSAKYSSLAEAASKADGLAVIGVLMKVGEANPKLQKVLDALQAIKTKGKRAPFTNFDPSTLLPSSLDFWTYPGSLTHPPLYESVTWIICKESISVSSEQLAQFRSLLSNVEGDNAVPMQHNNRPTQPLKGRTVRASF

Row | SMILES | KA [1] | KA [2] | KA [3] | KA [4]
1 | N[C@@H](Cc1ccc(O)c(O)c1)C(=O)O | 58.3 µM | 12.1 µM |  | 
2 | NCCc1ccc(O)c(O)c1 | 0.89 µM | 14.6 µM |  | 
3 | NCCc1ccccn1 | 27.8 µM | 6.9 µM |  | 
4 | NCc1ccccn1 | 43.7 µM | 21.7 µM |  | 
5 | N[C@H](Cc1ccc(O)c(O)c1)C(=O)O | 58.3 µM | 36.8 µM |  | 
6 | NCCN1CCNCC1 | 32.5 µM | 18.3 µM |  | 
7 | N[C@@H](Cc1c[nH]cn1)C(=O)O | 0.92 µM | 0.9 µM |  | 
8 | NCCN1CCOCC1 | 64.3 µM | 5.4 µM |  | 
9 | Nc1ccc(C[C@H](N)C(=O)O)cc1 | 39.6 µM | 18 µM | 0.24 µM | 0.15 µM
10 | N[C@@H](Cc1c[nH]c2ccccc12)C(=O)O | 57.5 µM | 16.5 µM |  | 
11 | N[C@H](Cc1c[nH]cn1)C(=O)O | 0.71 µM | 2.37 µM |  | 
12 | N[C@@H](Cc1ccc(O)cc1)C(=O)O | 20.3 µM | 21.8 µM | 0.02 µM | 0.011 µM
13 | NCCc1c[nH]cn1 | 37.5 µM | 0.01 µM |  | 
14 | CNC[C@@H](O)c1ccc(O)c(O)c1 | 60 µM | 36.1 µM | 0.09 µM | 96 µM
15 | N[C@H](Cc1c[nH]c2ccccc12)C(=O)O | 39.6 µM | 18 µM |  | 
16 | NCCc1c[nH]c2ccc(O)cc12 | 0.93 µM | 6.5 µM |  | 

Source: ChEMBL document CHEMBL1145387, “Carbonic anhydrase activators: activation of the human isoforms VII (cytosolic) and XIV (transmembrane) with amino acids and amines” (Bioorg Med Chem Lett, 2007)
